Key:
Type in all cases: cell-based
MV4-11 cells = experiment: Anti-proliferative effect, CellTiter-Glo assay; conditions: MV4-11, CellTiter-Glo, 72 h incubation, 5 μM and below
Description: The anti-proliferative effects of representative compounds were measured using the CellTiter-Glo assay (Promega). MV4-11 cells were incubated in a sterile, white, clear-bottomed 384-well cell-culture microplate (Greiner Bio-one), at 2× concentration in RPMI media and a volume of 25 μl. The next day, test compounds were serially diluted in RPMI media to 2× concentration, then added to cells to make a final volume of 50 μl. After a 72 h incubation 25 μl of CellTiter-Glo reagent was added to each well. Following 15 minute incubation the luminescence signal was read on a Pherastar FS. The final concentration of assay components are as follows: 3×10^5 cells/mL, 0.05% DMSO, 5 μM and below compound. Data (FIG. 11) was processed and dose-response curves generated using Prism 8 (Graphpad).

Brd4 (S) [1] = target: T1, Brd4 (S) (Homo sapiens, UniProt O60885); experiment: Concentration-dependent BET degradation, immunoblot, HeLa cells; conditions: 6 h treatment, 1 nM-10 μM
T1 construct: endogenous in cells; host or cells: HEK293, HeLa
Description: (§1) Cell culture. HeLa (CCL-2) and HEK293 (CRL-1573) cells were purchased from ATCC and cultured in DMEM medium (Gibco) supplemented with 10% FBS, 100 μg/mL penicillin/streptomycin and L-glutamine. Cells were grown at 37° C. and 5% CO2, and were kept no longer than 30 passages. All cell lines were routinely tested for mycoplasma contamination using MycoAlert kit from Lonza.
(§2) Immunoblotting. proteins were separated by SDS-PAGE on NuPage 4-12% Bis-Tris gels, followed by transfer to Amersham Protran 0.45 NC nitrocellulose membrane (GE Healthcare) using wet transfer. Membranes were blocked using 5% w/v milk in Tris-buffered saline (TBS) with 0.1% Tween-20. Blots were probed (overnight at 4° C.) using anti-Brd2 (Abcam ab139690, 1:2,000 dilution), anti-Brd3 (Abcam ab50818, 1:500 dilution), and anti-Brd4 (Abcam ab128874, 1:1,000 dilution) primary antibodies, as appropriate. The next day, blots were washed with TBST and incubated (1 hr at RT) with anti-Tubulin hFAB-rhodamine (BioRad, 12004166) primary antibody, and either anti-rabbit IRDye 800CW (Licor 1:10,000 dilution) or anti-mouse IRDye 800CW (Licor 1:10,000 dilution) secondary antibody. Blots were developed using a Bio-Rad ChemiDoc MP Imaging System, and band quantification was performed using Image Studio software (LiCor). Band intensities were normalized to the tubulin loading control and reported as % of the average 0.1% DMSO vehicle intensity. Degradation data was plotted and analysed using Prism (Graphpad, version 8).
(§3) HeLa (5×10^5) and HEK293 (1×10^6) cells were seeded in standard 6-well plates (2 mL medium) overnight before treatment with compounds at the desired concentration (1 nM-10 μM), with a final DMSO concentration of 0.1% v/v. After 6 h treatment time, cells were washed with DPBS (Gibco) and lysed using 85 μL RIPA buffer (Sigma-Aldrich) supplemented with cOmplete Mini EDTA-free protease inhibitor cocktail (Roche) and benzonase. Lysates were clarified by centrifugation (20,000g, 10 min, 4° C.) and the total protein content of the supernatant was quantified using a Bradford colorimetric assay. Samples were prepared using equal amounts of total protein and LDS sample buffer (Invitrogen.
(§4) Representative blots in FIG. 3 show depletion of Brd2, Brd3 and Brd4 protein levels following treatment with increasing concentrations of representative compounds. Band intensities were normalized to the β-tubulin loading control and reported as % of the average 0.1% DMSO vehicle intensity, with each point representing mean±SEM of two independent experiments (n=2). Degradation data was plotted and analysed using Prism (Graphpad, version 8)

Brd4 (L) [2] = target: T2, Brd4 (L) (Homo sapiens, UniProt O60885); experiment: as above; conditions: 6 h treatment, 1 nM-10 μM
T2 construct: endogenous in cells; host or cells: HEK293, HeLa
Description: as §1, §2, §3, §4

Brd4 (S) [3] = target: T1, Brd4 (S); experiment: Concentration-dependent BET degradation, immunoblot, HEK293 cells; conditions: 6 h treatment, 1 nM-10 μM
Description: as §1, §2, §3, §4

Brd4 (L) [4] = target: T2, Brd4 (L); experiment: as above; conditions: 6 h treatment, 1 nM-10 μM
Description: as §1, §2, §3, §4

Brd2 [5] = target: T3, Brd2 (Homo sapiens, UniProt P25440); experiment: as above; set-up: endogenous in cells; host or cells: HEK293; conditions: HEK293, Brd2, 6 h treatment, 1 nM-10 μM
Description: as §1, §2, §3, §4

Brd3 [6] = target: T4, Brd3 (Homo sapiens, UniProt Q15059); experiment: as above; set-up: endogenous in cells; host or cells: HEK293; conditions: HEK293, Brd3, 6 h treatment, 1 nM-10 μM
Description: as §1, §2, §3, §4

Brd4 (S) [7] = target: T1, Brd4 (S); experiment: Time-dependent BET degradation, immunoblot, HEK293 cells; set-up: dose or concentration left out as unconfirmed; conditions: timecourse 0-8 h
Description: as §1, §2
as §3, with “(3×10^5)” for “(5×10^5)”, “(0.5×10^6)” for “(1×10^6)”, “1 μM concentration,” for “the desired concentration (1 nM-10 μM),”, “incubation for the desired time (0-8 h),” for “6 h treatment time,”, “(20,000 g,” for “(20,000g,”, “(Invitrogen).” for “(Invitrogen.”
as §4, with “FIG. 4” for “FIG. 3”, “following 1 μM” for “following”, “treatment at various time points” for “treatment”, “with” for “with increasing concentrations of”, “version 8).” for “version 8)”
(§5) T½ (h) is the time required to deplete 50% of the protein relative to DMSO

Brd4 (L) [8] = target: T2, Brd4 (L); experiment: as above; set-up: dose or concentration left out as unconfirmed; conditions: timecourse 0-8 h
Description: as §1, §2
as §3, with “(3×10^5)” for “(5×10^5)”, “(0.5×10^6)” for “(1×10^6)”, “1 μM concentration,” for “the desired concentration (1 nM-10 μM),”, “incubation for the desired time (0-8 h),” for “6 h treatment time,”, “(20,000 g,” for “(20,000g,”, “(Invitrogen).” for “(Invitrogen.”
as §4, with “FIG. 4” for “FIG. 3”, “following 1 μM” for “following”, “treatment at various time points” for “treatment”, “with” for “with increasing concentrations of”, “version 8).” for “version 8)”
as §5

Brd2 [9] = target: T3, Brd2; experiment: Time-dependent BET degradation, immunoblot, HeLa cells; set-up: endogenous in cells; host or cells: HeLa; conditions: Brd2, 1 μM, timecourse 0-8 h
Description: as §1, §2
as §3, with “(3×10^5)” for “(5×10^5)”, “(0.5×10^6)” for “(1×10^6)”, “1 μM concentration,” for “the desired concentration (1 nM-10 μM),”, “incubation for the desired time (0-8 h),” for “6 h treatment time,”, “(20,000 g,” for “(20,000g,”, “(Invitrogen).” for “(Invitrogen.”
as §4, with “FIG. 4” for “FIG. 3”, “following 1 μM” for “following”, “treatment at various time points” for “treatment”, “with” for “with increasing concentrations of”, “version 8).” for “version 8)”
as §5

Brd3 [10] = target: T4, Brd3; experiment: as above; set-up: endogenous in cells; host or cells: HeLa; conditions: Brd3, 1 μM, timecourse 0-8 h
Description: as §1, §2
as §3, with “(3×10^5)” for “(5×10^5)”, “(0.5×10^6)” for “(1×10^6)”, “1 μM concentration,” for “the desired concentration (1 nM-10 μM),”, “incubation for the desired time (0-8 h),” for “6 h treatment time,”, “(20,000 g,” for “(20,000g,”, “(Invitrogen).” for “(Invitrogen.”
as §4, with “FIG. 4” for “FIG. 3”, “following 1 μM” for “following”, “treatment at various time points” for “treatment”, “with” for “with increasing concentrations of”, “version 8).” for “version 8)”
as §5

Brd4 (S) [11] = target: T1, Brd4 (S); experiment: as above; set-up: dose or concentration left out as unconfirmed; conditions: timecourse 0-8 h
Description: as §1, §2
as §3, with “(3×10^5)” for “(5×10^5)”, “(0.5×10^6)” for “(1×10^6)”, “1 μM concentration,” for “the desired concentration (1 nM-10 μM),”, “incubation for the desired time (0-8 h),” for “6 h treatment time,”, “(20,000 g,” for “(20,000g,”, “(Invitrogen).” for “(Invitrogen.”
as §4, with “FIG. 4” for “FIG. 3”, “following 1 μM” for “following”, “treatment at various time points” for “treatment”, “with” for “with increasing concentrations of”, “version 8).” for “version 8)”
as §5

Brd4 (L) [12] = target: T2, Brd4 (L); experiment: as above; set-up: dose or concentration left out as unconfirmed; conditions: timecourse 0-8 h
Description: as §1, §2
as §3, with “(3×10^5)” for “(5×10^5)”, “(0.5×10^6)” for “(1×10^6)”, “1 μM concentration,” for “the desired concentration (1 nM-10 μM),”, “incubation for the desired time (0-8 h),” for “6 h treatment time,”, “(20,000 g,” for “(20,000g,”, “(Invitrogen).” for “(Invitrogen.”
as §4, with “FIG. 4” for “FIG. 3”, “following 1 μM” for “following”, “treatment at various time points” for “treatment”, “with” for “with increasing concentrations of”, “version 8).” for “version 8)”
as §5

Brd2 [13] = target: T3, Brd2; experiment: Time-dependent BET degradation, immunoblot, HEK293 cells; set-up: endogenous in cells; host or cells: HEK293; conditions: HEK293, Brd2, 1 μM, timecourse 0-8 h
Description: as §1, §2
as §3, with “(3×10^5)” for “(5×10^5)”, “(0.5×10^6)” for “(1×10^6)”, “1 μM concentration,” for “the desired concentration (1 nM-10 μM),”, “incubation for the desired time (0-8 h),” for “6 h treatment time,”, “(20,000 g,” for “(20,000g,”, “(Invitrogen).” for “(Invitrogen.”
as §4, with “FIG. 4” for “FIG. 3”, “following 1 μM” for “following”, “treatment at various time points” for “treatment”, “with” for “with increasing concentrations of”, “version 8).” for “version 8)”
as §5

Brd3 [14] = target: T4, Brd3; experiment: as above; set-up: endogenous in cells; host or cells: HEK293; conditions: HEK293, Brd3, 1 μM, timecourse 0-8 h
Description: as §1, §2
as §3, with “(3×10^5)” for “(5×10^5)”, “(0.5×10^6)” for “(1×10^6)”, “1 μM concentration,” for “the desired concentration (1 nM-10 μM),”, “incubation for the desired time (0-8 h),” for “6 h treatment time,”, “(20,000 g,” for “(20,000g,”, “(Invitrogen).” for “(Invitrogen.”
as §4, with “FIG. 4” for “FIG. 3”, “following 1 μM” for “following”, “treatment at various time points” for “treatment”, “with” for “with increasing concentrations of”, “version 8).” for “version 8)”
as §5

Brd2 [15] = target: T3, Brd2; experiment: Concentration-dependent BET degradation, immunoblot, HeLa cells; set-up: endogenous in cells; host or cells: HeLa; conditions: Brd2, 6 h treatment, 1 nM-10 μM
Description: as §1, §2, §3, §4

Brd3 [16] = target: T4, Brd3; experiment: as above; set-up: endogenous in cells; host or cells: HeLa; conditions: Brd3, 6 h treatment, 1 nM-10 μM
Description: as §1, §2, §3, §4

[17] = read-out: Dmax (%) maximum degradation observed

T4 sequence (Q15059 whole entry): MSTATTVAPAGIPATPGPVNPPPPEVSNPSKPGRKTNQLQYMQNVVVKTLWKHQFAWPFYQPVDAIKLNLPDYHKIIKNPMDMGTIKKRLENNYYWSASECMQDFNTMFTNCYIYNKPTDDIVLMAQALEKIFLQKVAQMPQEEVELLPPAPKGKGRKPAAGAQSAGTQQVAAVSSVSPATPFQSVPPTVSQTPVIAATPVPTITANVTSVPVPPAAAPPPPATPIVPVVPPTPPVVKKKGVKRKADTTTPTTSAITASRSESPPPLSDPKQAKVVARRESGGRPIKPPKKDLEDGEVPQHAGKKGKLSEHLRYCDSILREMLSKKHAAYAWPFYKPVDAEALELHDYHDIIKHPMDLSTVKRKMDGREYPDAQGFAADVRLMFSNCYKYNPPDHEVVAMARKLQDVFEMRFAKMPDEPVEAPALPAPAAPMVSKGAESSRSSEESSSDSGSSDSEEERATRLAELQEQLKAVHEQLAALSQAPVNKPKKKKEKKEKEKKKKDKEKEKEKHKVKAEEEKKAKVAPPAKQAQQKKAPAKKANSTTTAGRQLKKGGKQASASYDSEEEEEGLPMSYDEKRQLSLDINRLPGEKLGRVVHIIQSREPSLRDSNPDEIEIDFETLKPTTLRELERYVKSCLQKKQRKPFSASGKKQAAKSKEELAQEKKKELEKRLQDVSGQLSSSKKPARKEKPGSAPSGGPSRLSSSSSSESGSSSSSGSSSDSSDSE
T3 sequence (P25440 whole entry): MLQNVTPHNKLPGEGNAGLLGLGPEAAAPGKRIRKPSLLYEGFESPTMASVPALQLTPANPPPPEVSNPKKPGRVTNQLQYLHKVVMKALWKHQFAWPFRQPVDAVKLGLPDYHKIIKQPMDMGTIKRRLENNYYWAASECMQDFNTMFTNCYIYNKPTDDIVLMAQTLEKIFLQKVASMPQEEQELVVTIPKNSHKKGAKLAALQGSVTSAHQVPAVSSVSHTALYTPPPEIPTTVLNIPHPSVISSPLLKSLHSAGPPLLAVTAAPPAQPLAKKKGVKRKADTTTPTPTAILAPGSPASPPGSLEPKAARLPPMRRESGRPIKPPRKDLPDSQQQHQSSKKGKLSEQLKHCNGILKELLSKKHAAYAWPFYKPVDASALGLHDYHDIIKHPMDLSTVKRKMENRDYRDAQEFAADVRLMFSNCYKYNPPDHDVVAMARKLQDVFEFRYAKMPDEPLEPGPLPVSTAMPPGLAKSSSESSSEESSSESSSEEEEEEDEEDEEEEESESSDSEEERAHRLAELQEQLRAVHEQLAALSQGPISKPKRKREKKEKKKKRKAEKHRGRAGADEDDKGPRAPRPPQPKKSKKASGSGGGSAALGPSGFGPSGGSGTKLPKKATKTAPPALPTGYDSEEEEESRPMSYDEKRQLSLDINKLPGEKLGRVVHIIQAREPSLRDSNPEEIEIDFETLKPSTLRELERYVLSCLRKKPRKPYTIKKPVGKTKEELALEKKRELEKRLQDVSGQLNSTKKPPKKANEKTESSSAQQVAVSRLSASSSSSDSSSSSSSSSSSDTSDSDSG

For `CCC[C@H](NC(=O)/C(C#N)=C/c1cccc(Br)n1)c1ccccc1` [Degrasyn, reference compound], the “cytotoxicity profile (anti-proliferative effect)” value (MV4-11 cells) was “significantly less cytotoxicity”.
`CCCC(NC(=O)/C(C#N)=C/c1cccc(Br)n1)c1ccc(OCC=NOCC(=O)NCCOCCNC(=O)c2ccc3c(c2)[C@H](Nc2ccc(Cl)cc2)C[C@H](C)N3C(C)=O)cc1` (stereo partly shown) [Example 05IB1] was tested, and the DC50 (Brd4 (S) [1]) was at most 50 nM, the Dmax (Brd4 (S) [1]; [17]) was at least 71% and the DC50 (Brd4 (L) [2]) was 51 to 500 nM. It also gave a Dmax (Brd4 (L) [2]; [17]) of 26 to 50%, a DC50 (Brd4 (S) [3]) of at most 50 nM and a Dmax (Brd4 (S) [3]; [17]) of at least 71%. For the same compound, the DC50 (Brd4 (L) [4]) was at most 50 nM, the Dmax (Brd4 (L) [4]; [17]) was at least 71% and the DC50 (Brd2 [5]) was at most 50 nM. The Dmax (Brd2 [5]; [17]) was 51 to 70%, the DC50 (Brd3 [6]) was at most 50 nM and the Dmax (Brd3 [6]; [17]) was at least 71%. The Dmax (Brd4 (S) [7]) was 100%, the Dmax (Brd4 (L) [8]) was 100% and the Dmax at 1 µM (Brd2 [9]) was 100%. For the same compound, the Dmax at 1 µM (Brd3 [10]) was 100%, the Dmax (Brd4 (S) [11]) was 100% and the Dmax (Brd4 (L) [12]) was 100%. The Dmax at 1 µM (Brd2 [13]) was 100%, the Dmax at 1 µM (Brd3 [14]) was 100% and the DC50 (Brd2 [15]) was 51 to 500 nM. The Dmax (Brd2 [15]; [17]) was at most 25%, the DC50 (Brd3 [16]) was at most 50 nM and the Dmax (Brd3 [16]; [17]) was 26 to 50%.

From patent US20210283139A1, “BIFUNCTIONAL MOLECULES FOR TARGETING UCHL5” (AMPHISTA THERAPEUTICS LTD, priority 2018, published 2021)
